# According to publication PMC10683027, “Discovery of tert-Butyl Ester Based 6-Diazo-5-oxo-L-norleucine Prodrugs for Enhanced Metabolic Stability and Tumor Delivery” (Journal of Medicinal Chemistry, 2023):
# Experiments:
# [1] = Metabolic stability in mouse plasma; details: for Plasma: supplementary CSV, unit not given, matches Table 1 % remaining at 1 h, in %
# [2] = Metabolic stability in mouse intestinal homogenate (GIh); details: for remaining at 1 h, 10 µM / remaining at 1 h, 10 μM: CES1–/–, mouse, intestinal homogenate; for Intestinal homogenate: supplementary CSV, unit not given, matches Table 1 % remaining at 1 h, in %
# [3] = Single time point pharmacokinetic screening, released DON in plasma and tumor of EL4 tumor-bearing mice; assay type: in vivo, C57BL/6/CES1–/– mice; details: 1 mg/kg DON equivalent SC; 30 min
# Procedure: C57BL/6/CES1^–/– mice were obtained as a gift from the United States Army Medical Research Institute of Chemical Defense, Maryland, USA; breeding was performed in the Johns Hopkins animal facility and was conducted according to protocols reviewed and approved by the Johns Hopkins Institutional Animal Care and Use Committee in compliance with the Association for Assessment and Accreditation of Laboratory Animal Care International (AAALAC) and the Public Health Service Policy on the Humane Care and Use of Laboratory Animals (PHS Policy). Male and female C57BL/6 mice (weighing between 25 and 30 g) 6–8 weeks of age were used for the study. The animals were maintained on a 12 h light–dark cycle with ad libitum access to food (certified laboratory food: Teklad 18% Protein Extruded Rodent Diet) and water. EL4 mouse lymphoma cells were obtained as a gift from the laboratory of Dr. Jonathan Powell (Johns Hopkins University, Baltimore, MD) and maintained in RPMI 1640 medium 1X (Corning, cat. no. 10-040-CV) with 10% (v/v) fetal bovine serum (Corning, cat. no. 35-011-CV), 1% (v/v) antimycotic/antibiotic (Corning, cat. no. 30-004-CI), 2 mM L-glutamine (Corning, cat. no. 25-005-CI), and 10 mM HEPES (Corning, cat. no. 25-060-CI) in a 5% (v/v) CO2 and 95% (v/v) air incubator prior to subcutaneous (SC) injection (1 × 10^6 cells in 0.2 mL of phosphate-buffered saline) on the flank of each mouse. […]
Structure (SMILES),"remaining at 1 h, 10 µM ([1]; CES1–/–, mouse, plasma) [%]",Plasma [1],"remaining at 1 h, 10 µM [2] [%]",Intestinal homogenate [2],"remaining at 1 h, 10 μM [2] [%]","remaining at 1 h, 10 μM ([1]; CES1–/–, mouse, plasma) [%]",preferential DON tumor versus plasma delivery [3]
"C[C@H](NC(=O)CN(C)C)C(=O)N[C@@H](CCC(=O)C=[N+]=[N-])C(=O)OC(C)(C)C [Prodrug P19, tert-Butyl (S)-6-Diazo-2-((S)-2-(2-(dimethylamino)acetamido)propanamido)-5-oxohexanoate]",99 ± 2,99 ± 2,86 ± 4,86 ± 4,–,–,–
"COC(=O)[C@H](CCC(=O)C=[N+]=[N-])NC(=O)[C@H](Cc1c[nH]c2ccccc12)NC(C)=O [Prodrug P1, Methyl (S)-2-((S)-2-Acetamido-3-(1H-indol-3-yl)propanamido)-6-diazo-5-oxohexanoate]",–,–,4,4 ± 0,< 10,–,–
"CNC(=O)[C@H](CCC(=O)C=[N+]=[N-])NC(=O)[C@H](Cc1c[nH]c2ccccc12)NC(C)=O [Prodrug P6, (S)-2-((S)-2-Acetamido-3-(1H-indol-3-yl)propanamido)-6-diazo-N-methyl-5-oxohexanamide]",102 ± 1,102 ± 1,77 ± 1,77 ± 1,> 50,–,–
"CN(C)CC(=O)N[C@H](C(=O)N[C@@H](CCC(=O)C=[N+]=[N-])C(=O)OC(C)(C)C)c1ccccc1 [Prodrug P13, tert-Butyl (S)-6-Diazo-2-((S)-2-(2-(dimethylamino)acetamido)-2-phenylacetamido)-5-oxohexanoate]",–,92 ± 1,–,92 ± 1,92 ± 1,92 ± 1,–
"CC(=O)N[C@@H](Cc1c[nH]c2ccccc12)C(=O)N[C@@H](CCC(=O)C=[N+]=[N-])C(=O)OC1CC1 [Prodrug P3, Cyclopropyl (S)-2-((S)-2-Acetamido-3-(1H-indol-3-yl)propanamido)-6-diazo-5-oxohexanoate]",–,–,6,6 ± 0,< 10,–,–
"CC(=O)N[C@@H](Cc1c[nH]c2ccccc12)C(=O)N[C@@H](CCC(=O)C=[N+]=[N-])C(=O)OCC1CC1 [Prodrug P4, Cyclopropylmethyl (S)-2-((S)-2-Acetamido-3-(1H-indol-3-yl)propanamido)-6-diazo-5-oxohexanoate]",–,–,1,1 ± 0,< 10,–,–
"CN(C)CC(=O)N[C@@H](CC(C)(C)C)C(=O)N[C@@H](CCC(=O)C=[N+]=[N-])C(=O)OC(C)(C)C [Prodrug P21, tert-Butyl (S)-6-Diazo-2-((S)-2-(2-(dimethylamino)acetamido)-4,4-dimethylpentanamido)-5-oxohexanoate]",98 ± 3,98 ± 3,68 ± 1,68 ± 1,–,–,–
"CN(C)CC(=O)NCC(=O)N[C@@H](CCC(=O)C=[N+]=[N-])C(=O)OC(C)(C)C [Prodrug P18, tert-Butyl (S)-6-Diazo-2-(2-(2-(dimethylamino)acetamido)acetamido)-5-oxohexanoate]",108 ± 1,108 ± 1,97 ± 1,97 ± 1,–,–,–
"CN(C)CC(=O)N[C@@H](CCc1ccccc1)C(=O)N[C@@H](CCC(=O)C=[N+]=[N-])C(=O)OC(C)(C)C [Prodrug P14, tert-Butyl (S)-6-Diazo-2-((S)-2-(2-(dimethylamino)acetamido)-4-phenylbutanamido)-5-oxohexanoate]",102 ± 2,102 ± 2,97 ± 3,97 ± 3,–,–,maintained the preferential DON tumor versus plasma delivery
"CCOC(=O)[C@H](CCC(=O)C=[N+]=[N-])NC(=O)[C@H](Cc1c[nH]c2ccccc12)NC(C)=O [Prodrug P2, Ethyl (S)-2-((S)-2-Acetamido-3-(1H-indol-3-yl)propanamido)-6-diazo-5-oxohexanoate]",–,–,2,2 ± 0,< 10,–,–
"CC(C)(C)OC(=O)[C@H](CCC(=O)C=[N+]=[N-])NC(=O)[C@H](Cc1c[nH]c2ccccc12)NC(=O)CN1CCOCC1 [Prodrug P7, tert-Butyl (S)-2-((S)-3-(1H-Indol-3-yl)-2-(2-morpholinoacetamido)propanamido)-6-diazo-5-oxohexanoate]",95 ± 3,–,83 ± 1,83 ± 1,–,–,–

# Now from value to compound, other results behind:
"remaining at 1 h, 10 µM ([1]; CES1–/–, mouse, plasma) [%]",Plasma [1],"remaining at 1 h, 10 µM [2] [%]",Intestinal homogenate [2],"remaining at 1 h, 10 μM [2] [%]",Structure (SMILES),"remaining at 1 h, 10 μM ([1]; CES1–/–, mouse, plasma) [%]",preferential DON tumor versus plasma delivery [3]
108 ± 1,108 ± 1,67 ± 1,67 ± 1,–,"CN(C)CC(=O)N[C@@H](Cc1ccc(F)cc1)C(=O)N[C@@H](CCC(=O)C=[N+]=[N-])C(=O)OC(C)(C)C [Prodrug P15, tert-Butyl (S)-6-Diazo-2-((S)-2-(2-(dimethylamino)acetamido)-3-(4-fluorophenyl)propanamido)-5-oxohexanoate]",–,–
98 ± 2,98 ± 2,79,79 ± 0,–,"CC(C)C[C@H](NC(=O)CN(C)C)C(=O)N[C@@H](CCC(=O)C=[N+]=[N-])C(=O)OC(C)(C)C [Prodrug P20, tert-Butyl (S)-6-Diazo-2-((S)-2-(2-(dimethylamino)acetamido)-4-methylpentanamido)-5-oxohexanoate]",–,–
99 ± 3,99 ± 3,69 ± 7,69 ± 7,–,"CN(C)CC(=O)N[C@@H](Cc1cccc(F)c1)C(=O)N[C@@H](CCC(=O)C=[N+]=[N-])C(=O)OC(C)(C)C [Prodrug P16, tert-Butyl (S)-6-Diazo-2-((S)-2-(2-(dimethylamino)acetamido)-3-(3-fluorophenyl)propanamido)-5-oxohexanoate]",–,–
92 ± 1,92 ± 1,99 ± 1,99 ± 1,> 50,"CC(=O)N[C@@H](Cc1c[nH]c2ccccc12)C(=O)N[C@@H](CCC(=O)C=[N+]=[N-])C(=O)OC(C)(C)C [Prodrug P5, tert-Butyl (S)-2-((S)-2-Acetamido-3-(1H-indol-3-yl)propanamido)-6-diazo-5-oxohexanoate]",–,–
102 ± 2,102 ± 2,66 ± 1,66 ± 1,–,"CN(C)CC(=O)N[C@@H](Cc1c[nH]c2ccccc12)C(=O)N[C@@H](CCC(=O)C=[N+]=[N-])C(=O)OC(C)(C)C [Prodrug P9, tert-Butyl (S)-6-Diazo-2-((S)-2-(2-(dimethylamino)acetamido)-3-(1H-indol-3-yl)propanamido)-5-oxohexanoate]",–,–
70 ± 14,70 ± 14,76 ± 1,76 ± 1,–,"CN(C)CC(=O)N[C@@H](Cc1ccc(C(F)(F)F)cc1)C(=O)N[C@@H](CCC(=O)C=[N+]=[N-])C(=O)OC(C)(C)C [Prodrug P17, tert-Butyl (S)-6-Diazo-2-((S)-2-(2-(dimethylamino)acetamido)-3-(4-(trifluoromethyl)phenyl)propanamido)-5-oxohexanoate]",–,–
97 ± 2,97 ± 2,87 ± 2,87 ± 2,–,"CN(C)CC(=O)N[C@@H](Cc1cn(C)c2ccccc12)C(=O)N[C@@H](CCC(=O)C=[N+]=[N-])C(=O)OC(C)(C)C [Prodrug P10, tert-Butyl (S)-6-Diazo-2-((S)-2-(2-(dimethylamino)acetamido)-3-(1-methyl-1H-indol-3-yl)propanamido)-5-oxohexanoate]",–,–
92,92 ± 0,90 ± 3,90 ± 3,–,"CN(C)CC(=O)N[C@H](Cc1ccccc1)C(=O)N[C@@H](CCC(=O)C=[N+]=[N-])C(=O)OC(C)(C)C [Prodrug P12, tert-Butyl (S)-6-Diazo-2-((R)-2-(2-(dimethylamino)acetamido)-3-phenylpropanamido)-5-oxohexanoate]",–,–
